Assays:
[1] = tested on: hIL-17 mRNA; assay: Inhibition of hIL-17 mRNA transcription in OKT3-stimulated peripheral blood mononuclear cells; type: cell-based; details: PBMC, human peripheral blood mononuclear cells, OKT3 antibody, 6 h, read-out: IL-17 activity
Description: In this example, hIL-17 mRNA in human peripheral blood mononuclear cells was quantitated to measure the transcriptional inhibition of hIL-17 when treated with a compound of the invention.
Human peripheral blood mononuclear cells were plated (2.0×10^5 cells per well) in a 96-well plate in 45 μL OpTimizer T Cell expansion media containing 20 ng/ml IL-2 and penicillin/streptomycin. The cells were treated with the test compound (45 μL at 2× concentration), and then the cells were incubated at 37° C. for 1 h before addition of 10× stock OKT3 antibody at 10 μg/ml in media. Cells were incubated at 37° C. for 6 h before the cells were harvested. At time of harvest, cells were centrifuged (800 rpm, 5 min). Spent media was removed and cell lysis solution (70 μL) was added to the cells in each well and incubated for 5-10 min at room temperature, to allow for complete cell lysis and detachment. mRNA was then prepared using the “mRNA Catcher PLUS plate” (Invitrogen), according to the protocol supplied. After the last wash, as much wash buffer as possible was aspirated without allowing the wells to dry. Elution buffer (E3, 70 μL) was then added to each well. mRNA was then eluted by incubating the mRNA Catcher PLUS plate with Elution Buffer for 5 min at 68° C. and then immediately placing the plate on ice.
The eluted mRNA isolated was then used in a one-step quantitative RT-PCR reaction, using components of the Ultra Sense Kit together with Applied Biosystems primer-probe mixes. Real-time PCR data was analyzed, normalizing the Ct values for hIL-17 to an internal control, prior to determining the fold induction of each unknown sample, relative to the control.

[2] = tested on: hIL-6 mRNA; assay: Inhibition of hIL-6 mRNA transcription in LPS-stimulated U937 cells; type: cell-based; details: Homo sapiens, U-937; PMA-differentiated U937 cells, 1 h pretreatment, 1 ug/mL LPS stimulation, 3 h; read-out: IL-6 activity (Inhibition of hIL-6 mRNA Transcription)
Method in brief: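 U937 cells differentiated 3 days with 60 ng/mL PMA, pretreated 1 h with compound (0.1% DMSO), then stimulated with 1 ug/mL E. coli LPS for 3 h at 37 °C. hIL-6 mRNA measured by one-step TaqMan RT-qPCR, normalized to cyclophilin. Fold expression relative to control; triplicate wells.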

[3] = tested on: c-myc; assay: Inhibition of c-myc expression (mRNA, real-time PCR) in MV4-11 cells; type: cell-based; details: Human AML MV4-11 cells, 3 h, cMYC mRNA
Method in brief: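 One-step TaqMan qPCR of cMYC, normalized to an internal control with Cyclophilin probes run, gave fold expression versus DMSO (0.1%) control. Samples: triplicate MV4-11 wells exposed 3 h at 37° C to rising compound concentrations in IMDM with 10% FBS.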

[4] = target: T1, Brd4 bromodomain 1 (BRD4(1)) (Homo sapiens, UniProt O60885); assay: Inhibition of tetra-acetylated histone H4 binding to Brd4 bromodomain 1 (TR-FRET); details: tetra-acetylated histone H4 peptide, first bromodomain of Brd4
T1 construct: made in house; host or cells: E. coli BL21(DE3)
Method in brief: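 Serially diluted compound (0.2% DMSO) incubated 2 h at room temperature with 200 nM N-His BRD4 bromodomain 1 and 25-50 nM biotinylated tetra-acetyl H4 peptide, detected via Eu-streptavidin/XL665 anti-His. Loss of 665 nm relative to 620 nm signal gave IC50 from dose-response.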

[5] = tested on: human AML MV-4-11 cells; assay: Inhibition of cell proliferation in MV4-11 cells (CellTiter Aqueous One); type: cell-based; details: MV4-11, 72 h
Method in brief: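 IC50 values come from blank-corrected proliferation relative to DMSO controls, read as 490 nm absorbance 3–4 h after CellTiter Aqueous One addition. Before that, cells seeded at 5×10^4/well were exposed for 72 h (37° C, 5% CO2) to triplicate two-fold compound dilutions spanning 30–0.2 μM.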

SMILES	IC50 [1] [nM]	IC50 [2] [nM]	IC50 [3] [nM]	IC50 [4] [nM]	IC50 [5] [nM]
Cc1noc(C)c1-c1cnc2[nH]c(=O)n(Cc3ccc(Cl)cc3)c2c1 [compound 105, 1-(4-chlorobenzyl)-6-(3,5-dimethylisoxazol-4-yl)-1H-imidazo[4,5-b]pyridin-2(3H)-one]	300 to 3000	300 to 3000	300 to 3000	≤ 300	300 to 3000
Cc1noc(C)c1-c1cnc2cnn(Cc3ccc(F)cc3)c2c1 [Example Compound 51, 4-(1-(4-fluorobenzyl)-1H-pyrazolo[4,3-b]pyridin-6-yl)-3,5-dimethylisoxazole]	300 to 3000	300 to 3000	300 to 3000	≤ 300	300 to 3000
CC(=O)Nc1cc(-c2c(C)noc2C)cc2c1nc(C)n2Cc1ccccc1 [Example Compound 64, N-(1-benzyl-6-(3,5-dimethylisoxazol-4-yl)-2-methyl-1H-benzo[d]imidazol-4-yl)acetamide]	≤ 300	≤ 300	≤ 300	≤ 300	300 to 3000

Source: patent US10363257B2 (ZENITH EPIGENETICS LTD., priority 2013, dated 2019)
